The source made the active and inactive calls. The rule behind the calls is not given here.
Assays:
A549 = experiment: Cytotoxicity against human A549 cells assessed as reduction in cell proliferation after 48 hrs by MTT assay; type: functional, cell-based
HCT-116 = experiment: Cytotoxicity against human HCT116 cells assessed as reduction in cell proliferation after 48 hrs by MTT assay; type: functional, cell-based
NCI-H1975 = experiment: Cytotoxicity against human NCI-H1975 cells assessed as reduction in cell proliferation after 48 hrs by MTT assay; type: functional, cell-based
[1] = Cytotoxicity against human HO8910 cells assessed as reduction in cell proliferation after 48 hrs by MTT assay; type: functional, cell-based
HL-60 = experiment: Cytotoxicity against human HL60 cells assessed as reduction in cell proliferation after 48 hrs by MTT assay; type: functional, cell-based
K562 = experiment: Cytotoxicity against human K562 cells assessed as reduction in cell proliferation after 48 hrs by MTT assay; type: functional, cell-based
MGC-803 [2] = experiment: Cytotoxicity against human MGC803 cells assessed as reduction in cell proliferation after 48 hrs by MTT assay; type: functional, cell-based
HEK293 = experiment: Cytotoxicity against HEK293 cells assessed as reduction in cell proliferation after 48 hrs by MTT assay; type: cell-based; conditions: Homo sapiens, HEK293, 48 h
Homo sapiens = organism: Homo sapiens; experiment: Inhibition of DNA topoisomerase-2 (unknown origin) at 100 uM using kinetoplast DNA as substrate measured after 30 mins by ethidium bromide staining based agarose gel electrophoresis method
[3] = biological target: T1, DNA topoisomerase 1 (Homo sapiens) (UniProt P11387); experiment: Inhibition of DNA topoisomerase-1 (unknown origin) up to 40 uM using supercoiled pBR322 DNA as substrate preincubated with enzyme followed by substrate addition measured after 30 mins by ethidium bromide staining based agarose gel electrophoresis method
T1 sequence (whole entry): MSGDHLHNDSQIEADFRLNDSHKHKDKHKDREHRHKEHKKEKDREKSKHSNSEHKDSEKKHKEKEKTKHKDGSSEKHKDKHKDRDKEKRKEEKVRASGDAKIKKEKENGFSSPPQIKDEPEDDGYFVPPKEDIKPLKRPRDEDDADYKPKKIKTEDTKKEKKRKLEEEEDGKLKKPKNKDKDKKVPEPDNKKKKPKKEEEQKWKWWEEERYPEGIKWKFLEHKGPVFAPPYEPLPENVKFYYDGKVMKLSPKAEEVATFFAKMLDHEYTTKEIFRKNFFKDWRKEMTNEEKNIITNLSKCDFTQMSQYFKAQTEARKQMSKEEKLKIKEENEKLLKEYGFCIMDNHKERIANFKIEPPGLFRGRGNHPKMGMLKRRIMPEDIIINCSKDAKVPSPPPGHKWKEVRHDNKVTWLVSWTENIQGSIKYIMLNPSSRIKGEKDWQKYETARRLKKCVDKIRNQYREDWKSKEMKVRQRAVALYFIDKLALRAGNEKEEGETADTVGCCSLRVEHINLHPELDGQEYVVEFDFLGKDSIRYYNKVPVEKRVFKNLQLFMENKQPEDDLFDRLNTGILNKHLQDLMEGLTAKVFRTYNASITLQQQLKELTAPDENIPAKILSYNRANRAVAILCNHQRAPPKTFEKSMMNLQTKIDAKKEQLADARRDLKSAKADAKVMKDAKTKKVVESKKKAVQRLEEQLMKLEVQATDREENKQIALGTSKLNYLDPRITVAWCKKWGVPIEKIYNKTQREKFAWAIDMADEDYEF

[4] = biological target: T2, Topoisomerase I (Bos taurus) (UniProt Q2HPH0); experiment: Inhibition of calf thymus DNA topoisomerase-1-mediated supercoiled pBR322 DNA relaxation assessed as stabilization of enzyme-DNA complex at 100 uM preincubated with enzyme followed by substrate addition measured after 30 mins by ethidium bromide staining based agarose gel electrophoresis method
T2 sequence (whole entry): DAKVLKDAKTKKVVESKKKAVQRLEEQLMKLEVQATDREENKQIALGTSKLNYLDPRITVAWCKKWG

[5] = biological target: T2, Topoisomerase I (Bos taurus); conditions: 40 uM
Description: Inhibition of calf thymus DNA topoisomerase-1-mediated supercoiled pBR322 DNA relaxation assessed as stabilization of enzyme-DNA complex at 40 uM preincubated with enzyme followed by substrate addition measured after 30 mins by ethidium bromide staining based agarose gel electrophoresis method

DNA [6] = experiment: Inhibition of ethidium bromide binding to Escherichia coli pBR322 DNA at 100 uM after 30 mins by fluorescence assay; type: nucleic-acid assay
MGC-803 [7] = experiment: Induction of apoptosis in human MGC803 cells up to 25 uM after 48 hrs by Hoechst 33342/propidium iodide staining based flow cytometry; type: functional, cell-based
MGC-803 [8] = experiment: Induction of apoptosis in human MGC803 cells assessed as change in PARP protein expression up to 25 uM after 24 hrs by Western blot analysis; type: functional, cell-based
DNA [9] = experiment: Binding affinity to Escherichia coli pBR322 DNA assessed as hypochromicity by UV-Visible spectrum analysis; type: nucleic-acid assay
[10] = biological target: T1, DNA topoisomerase 1 (Homo sapiens); experiment: Inhibition of DNA topoisomerase-1 (unknown origin) at 10 uM using supercoiled pBR322 DNA as substrate preincubated for 1 to 30 mins followed by substrate addition by ethidium bromide staining based agarose gel electrophoresis method; conditions: TDE = time-dependent effect
[11] = biological target: T1, DNA topoisomerase 1 (Homo sapiens); experiment: Inhibition of DNA topoisomerase-1 (unknown origin) using supercoiled pBR322 DNA as substrate preincubated with enzyme followed by substrate addition measured after 30 mins by ethidium bromide staining based agarose gel electrophoresis method
MGC-803 [12] = experiment: Induction of apoptosis in human MGC803 cells assessed as change in procaspase-9 protein expression up to 25 uM after 24 hrs by Western blot analysis; type: functional, cell-based
DNA [13] = experiment: Binding affinity to Escherichia coli pBR322 DNA assessed as red shift by UV-Visible spectrum analysis; type: nucleic-acid assay
MGC-803 [14] = experiment: Induction of cell membrane permeability in human MGC803 cells up to 50 uM up to 72 hrs by LDH release assay; type: functional, cell-based
MGC-803 [15] = experiment: Cell cycle arrest in human MGC803 cells assessed as accumulation at G2/M phase after 24 hrs by propidium iodide staining based flow cytometry; type: functional
[16] = biological target: T1, DNA topoisomerase 1 (Homo sapiens); experiment: Inhibition of DNA topoisomerase-1 (unknown origin) at 10 uM using supercoiled pBR322 DNA as substrate preincubated for 15 mins followed by substrate addition measured after 30 mins by ethidium bromide staining based agarose gel electrophoresis method
MGC-803 [17] = experiment: Induction of necrosis in human MGC803 cells after 24 hrs by Annexin V-FITC/propidium iodide staining based flow cytometry; type: functional, cell-based

| SMILES | IC50 (A549; Homo sapiens, A549, 48 h) | IC50 (HCT-116; Homo sapiens, HCT-116, 48 h) | IC50 (NCI-H1975; Homo sapiens, NCI-H1975, 48 h) | IC50 ([1]; Homo sapiens, HO-8910, 48 h) | IC50 (HL-60; Homo sapiens, HL-60, 48 h) | IC50 (K562; Homo sapiens, K562, 48 h) | IC50 (MGC-803 [2]; Homo sapiens, MGC-803, 48 h) | IC50 (HEK293) | inhibition (Homo sapiens) | inhibition [4] | also measured |
| --- | --- | --- | --- | --- | --- | --- | --- | --- | --- | --- | --- |
| COC(=O)[C@@]12Oc3c(-c4ccc(O)c5c4O[C@]4(C(=O)OC)C(=C(O)C[C@H](C)[C@H]4O)C5=O)ccc(O)c3C(=O)C1=C(O)C[C@H](C)[C@H]2O | 11.7 µM | 0.5 µM | 3.5 µM | 1.4 µM | 0.9 µM | 0.4 µM | 0.9 µM | – | – | – | – |
| COC(=O)[C@@]12Oc3ccc(-c4ccc(O)c5c4O[C@]4(C(=O)OC)C(=C(O)C[C@H](C)[C@H]4O)C5=O)c(O)c3C(=O)C1=C(O)C[C@H](C)[C@H]2O | 1.6 µM | 1.2 µM | – | 1.5 µM | 0.5 µM | 1.1 µM | 1.1 µM | – | – | – | – |
| COC(=O)c1c(O)c(C)cc(O)c1C(=O)c1c(O)ccc(-c2ccc3c(c2O)C(=O)C2=C(O)C[C@H](C)[C@@H](O)[C@]2(C(=O)OC)O3)c1O | > 50 µM | > 50 µM | > 50 µM | > 50 µM | 27.8 µM | > 50 µM | – | > 50 µM | – | – | – |
| COC(=O)[C@@]12Oc3ccc(-c4ccc(O)c5c4O[C@]4(C(=O)OC)C(=C(O)C[C@H](C)[C@H]4O)C5=O)c(O)c3C(=O)C1=C(O)C[C@H](CO)[C@H]2O | > 50 µM | > 50 µM | > 50 µM | > 50 µM | 47.3 µM | > 50 µM | – | > 50 µM | – | – | – |
| COC(=O)[C@@]12Oc3c(-c4ccc5c(c4O)C(=O)C4=C(O)C[C@H](C)[C@@H](O)[C@]4(C(=O)OC)O5)ccc(O)c3C(=O)C1=C(O)C[C@H](CO)[C@H]2O | > 50 µM | > 50 µM | 49.5 µM | > 50 µM | 49.5 µM | > 50 µM | > 50 µM | > 50 µM | inactive | Active | inhibition [3]: Active |
| CC[C@@]1(O)C(=O)OCc2c1cc1n(c2=O)Cc2cc3cc(O)ccc3nc2-1 | – | – | – | – | – | – | – | – | – | – | inhibition [5]: Active |
| COc1cc(NS(C)(=O)=O)ccc1Nc1c2ccccc2nc2ccccc12 | – | – | – | – | – | – | – | – | – | – | inhibition (DNA [6]): Active |
| COC(=O)[C@@]12Oc3cc(C)c(-c4ccc5c(c4O)C(=O)C4=C(O)C[C@H](C)[C@@H](O)[C@]4(C(=O)OC)O5)c(O)c3C(=O)C1=C(O)CC[C@H]2O (stereo in doubt; 1) | – | – | – | – | – | – | – | – | inactive | Active | Activity (MGC-803 [7]): inactive; Activity (MGC-803 [8]): inactive; Activity (DNA [9]): inactive; inhibition [10]: Tde; inhibition (DNA [6]): inactive; inhibition [11]: Dose-dependent effect; Activity (MGC-803 [12]): inactive; Activity (DNA [13]): inactive; Activity (MGC-803 [14]): Active; Activity (MGC-803 [15]): Dose-dependent effect; inhibition [16]: 100%; Activity (MGC-803 [17]): Dose-dependent effect |
| COC(=O)[C@@]12Oc3cc(C)c(-c4ccc5c(c4O)C(=O)C4=C(O)C[C@H](C)[C@@H](O)[C@]4(C(=O)OC)O5)c(O)c3C(=O)C1=C(O)CC[C@H]2O (stereo in doubt; 2) [listing 1 of 2 here] | – | – | – | – | – | – | – | – | – | – | IC50 (A549; a549): 19.2 µM; IC50 (HCT-116; hct-116): 15.2 µM; IC50 (NCI-H1975; nci-h1975): 5.3 µM; IC50 [1]: 6.9 µM; IC50 (HL-60; hl-60): 6.9 µM; IC50 (K562; k562): 22.1 µM; IC50 (MGC-803 [2]; mgc-803): 6.2 µM |
| COC(=O)[C@@]12Oc3cc(C)c(-c4ccc5c(c4O)C(=O)C4=C(O)C[C@H](C)[C@@H](O)[C@]4(C(=O)OC)O5)c(O)c3C(=O)C1=C(O)CC[C@H]2O (stereo in doubt; 2) [listing 2 of 2 here] | – | – | – | – | – | – | – | – | inactive | Active | inhibition [3]: Active |

Reference: ChEMBL document CHEMBL4196027, “Structure-based discovery of cytotoxic dimeric tetrahydroxanthones as potential topoisomerase I inhibitors from a marine-derived fungus” (Eur J Med Chem, 2018)
